Assays:
Beta-secretase 1 [1] = biological target: T1, Beta-secretase 1 (Homo sapiens, UniProt P56817)
Beta-secretase 1 [2] = biological target: T1, Beta-secretase 1; remark: listed apart in the source

T1 sequence (P56817 whole entry): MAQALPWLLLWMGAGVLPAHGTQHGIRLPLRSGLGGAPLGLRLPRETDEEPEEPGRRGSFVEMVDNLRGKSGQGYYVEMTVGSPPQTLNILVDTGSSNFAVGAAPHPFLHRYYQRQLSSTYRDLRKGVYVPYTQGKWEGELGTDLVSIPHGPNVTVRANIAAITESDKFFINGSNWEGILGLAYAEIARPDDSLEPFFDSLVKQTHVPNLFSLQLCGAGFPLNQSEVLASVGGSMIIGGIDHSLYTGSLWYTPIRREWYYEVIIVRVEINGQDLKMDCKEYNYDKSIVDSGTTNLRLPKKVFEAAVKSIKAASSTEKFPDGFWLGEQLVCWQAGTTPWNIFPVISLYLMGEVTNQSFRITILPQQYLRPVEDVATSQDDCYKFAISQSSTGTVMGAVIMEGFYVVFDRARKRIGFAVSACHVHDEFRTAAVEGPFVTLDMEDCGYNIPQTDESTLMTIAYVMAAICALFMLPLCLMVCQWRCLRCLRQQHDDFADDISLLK

| SMILES | IC50 (Beta-secretase 1 [1]) | IC50 (Beta-secretase 1 [2]) |
| --- | --- | --- |
| CCCN(CCC)C(=O)c1cc(C)cc(C(=O)N[C@@H](Cc2cc(F)cc(F)c2)[C@H](O)[C@H]2C[C@@H](OCC3CC3)CCN2)c1 | 121 nM | 6 nM |
| CCCCO[C@H]1CCN[C@@H]([C@@H](O)[C@H](Cc2cc(F)cc(F)c2)NC(=O)c2cc(C)cc(C(=O)N(CCC)CCC)c2)C1 | 160 nM | 7 nM |
| CCCN(CCC)C(=O)c1cc(C)cc(C(=O)N[C@@H](Cc2cc(F)cc(F)c2)[C@H](O)[C@H]2C[C@@H](OCC3CCCCC3)CCN2)c1 | 567 nM | 12 nM |
| CCCN(CCC)C(=O)c1cc(C)cc(C(=O)N[C@@H](Cc2cc(F)cc(F)c2)[C@H](O)[C@H]2C[C@@H](Cc3ccccc3OC)CCN2)c1 |  | 1350 nM |
| CCCN(CCC)C(=O)c1cc(C)cc(C(=O)N[C@@H](Cc2cc(F)cc(F)c2)[C@H](O)[C@H]2C[C@@H](CCc3ccccc3)CCN2)c1 | 1850 nM | 191 nM |
| CCCN(CCC)C(=O)c1cc(C)cc(C(=O)N[C@@H](Cc2cc(F)cc(F)c2)[C@H](O)[C@H]2C[C@@H](OCCOC)CCN2)c1 | 110 nM | 4 nM |
| CCCN(CCC)C(=O)c1cc(C)cc(C(=O)N[C@@H](Cc2cc(F)cc(F)c2)[C@H](O)[C@H]2C[C@@H](OC(C)C)CCN2)c1 | 858 nM | 120 nM |
| CCCN(CCC)C(=O)c1cc(C)cc(C(=O)N[C@@H](Cc2cc(F)cc(F)c2)[C@H](O)[C@H]2C[C@@H](OCCN(C)C)CCN2)c1 | 482 nM | 26 nM |
| CCCN(CCC)C(=O)c1cc(C)cc(C(=O)N[C@@H](Cc2cc(F)cc(F)c2)[C@H](O)[C@H]2C[C@@H](Cc3cccc(OC)c3)CCN2)c1 |  | 330 nM |
| CCCN(CCC)C(=O)c1cc(C)cc(C(=O)N[C@@H](Cc2cc(F)cc(F)c2)[C@H](O)[C@H]2C[C@@H](CC3CCCCC3)CCN2)c1 | 2000 nM | 630 nM |
| CCCN(CCC)C(=O)c1cc(C)cc(C(=O)N[C@@H](Cc2cc(F)cc(F)c2)[C@H](O)[C@H]2C[C@@H](OC(C)=O)CCN2)c1 | 3000 nM | 2000 nM |
| CCC[C@H]1CCN[C@@H]([C@@H](O)[C@H](Cc2cc(F)cc(F)c2)NC(=O)c2cc(C)cc(C(=O)N(CCC)CCC)c2)C1 | 1200 nM | 70 nM |
| CCCN(CCC)C(=O)c1cc(C)cc(C(=O)N[C@@H](Cc2cc(F)cc(F)c2)[C@H](O)[C@H]2C[C@@H](OC)CN2)c1 | 780 nM | 187 nM |
| CCCN(CCC)C(=O)c1cc(C)cc(C(=O)N[C@@H](Cc2cc(F)cc(F)c2)[C@H](O)[C@H]2C[C@@H](O)CN2)c1 | 1450 nM | 89 nM |
| CCCN(CCC)C(=O)c1cc(C)cc(C(=O)N[C@@H](Cc2cc(F)cc(F)c2)[C@H](O)[C@H]2C[C@@H](C3CCCCC3)CCN2)c1 | 4200 nM | 610 nM |
| CCCN(CCC)C(=O)c1cc(C)cc(C(=O)N[C@@H](Cc2cc(F)cc(F)c2)[C@H](O)[C@H]2CCN2)c1 | 2800 nM | 770 nM |
| CCCN(CCC)C(=O)c1cc(C)cc(C(=O)N[C@@H](Cc2cc(F)cc(F)c2)[C@H](O)[C@H]2CCCN2)c1 | 330 nM | 65 nM |
| CCCN(CCC)C(=O)c1cc(C)cc(C(=O)N[C@@H](Cc2cc(F)cc(F)c2)[C@H](O)[C@H]2C[C@@H](Cc3ccc(OC)cc3)CCN2)c1 | 2000 nM | 440 nM |
